The subject of one assay is SNU-16. As to the kind of experiment: Cellular Proliferation Assay (Cell Counting Kit-8), SNU-16. It is filed as cell-based. The following applies: Homo sapiens; SNU-16 cells, 72 hours. Put shortly:
(§1)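 Seeding per well: KG-1 30000, SNU-16 5000, RT-112 1000 cells. After 24 h an 8-point series (working dilutions 10 to 0.004 μM in 5% DMSO) was added for 72 h at 37 °C, 5% CO2. CCK-8 OD450 after 1 h, corrected for media background and normalised to untreated cells, gave IC50.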

Another assay deals with RT-112. As to the kind of experiment: Cellular Proliferation Assay (Cell Counting Kit-8), RT-112. To be noted: Homo sapiens; RT-112 cells, 72 hours. It is filed as cell-based. Put shortly: as §1
For orientation: Tetrazolium assays rely on reduction of a dye to a coloured formazan, in cell work by metabolically active cells.

Another assay concerns the target FGFR3 kinase (Homo sapiens, UniProt P22607). As to the kind of experiment: Z-Lyte Kinase Assay of FGFR3. It is filed as biochemical. Put shortly:
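Z-LYTE FRET assay, kinase 0.7 μg/ml with Tyr 4 peptide 4 μM (P/K solution), ATP diluted to 300 uM in 1.33× buffer; compound final 1 to 0.00046 μM, 2% DMSO.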

A further assay addresses Recombinant human FGFR2 (Homo sapiens, UniProt P21802). The assay can be described thus: Transcreener Kinase Assay of FGFR2. Type of assay: biochemical. To be noted: read-out: FGFR2 (FP) IC50.
A further assay addresses Recombinant human FGFR1 (Homo sapiens, UniProt P11362). The assay can be described thus: Transcreener Kinase Assay of FGFR1. Type of assay: biochemical. The following applies: read-out: FGFR1 (FP) IC50. An outline of the steps:
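Recombinant human FGFR1 was reacted with Poly E4Y substrate and ATP for 45 min at 28 °C, with compounds at 1 to 0.0005 µM in 1% DMSO final. Inhibition is relative to the DMSO control, with IC50 from a curve fit.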

In the next assay the test system is KG-1. The assay can be described thus: Cellular Proliferation Assay (Cell Counting Kit-8), KG-1. The following applies: Homo sapiens; KG-1 cells, 72 hours; read-out: KG1 IC50. Type of assay: cell-based. An outline of the steps: as §1

Chain of Recombinant human FGFR1 (P11362 22-822): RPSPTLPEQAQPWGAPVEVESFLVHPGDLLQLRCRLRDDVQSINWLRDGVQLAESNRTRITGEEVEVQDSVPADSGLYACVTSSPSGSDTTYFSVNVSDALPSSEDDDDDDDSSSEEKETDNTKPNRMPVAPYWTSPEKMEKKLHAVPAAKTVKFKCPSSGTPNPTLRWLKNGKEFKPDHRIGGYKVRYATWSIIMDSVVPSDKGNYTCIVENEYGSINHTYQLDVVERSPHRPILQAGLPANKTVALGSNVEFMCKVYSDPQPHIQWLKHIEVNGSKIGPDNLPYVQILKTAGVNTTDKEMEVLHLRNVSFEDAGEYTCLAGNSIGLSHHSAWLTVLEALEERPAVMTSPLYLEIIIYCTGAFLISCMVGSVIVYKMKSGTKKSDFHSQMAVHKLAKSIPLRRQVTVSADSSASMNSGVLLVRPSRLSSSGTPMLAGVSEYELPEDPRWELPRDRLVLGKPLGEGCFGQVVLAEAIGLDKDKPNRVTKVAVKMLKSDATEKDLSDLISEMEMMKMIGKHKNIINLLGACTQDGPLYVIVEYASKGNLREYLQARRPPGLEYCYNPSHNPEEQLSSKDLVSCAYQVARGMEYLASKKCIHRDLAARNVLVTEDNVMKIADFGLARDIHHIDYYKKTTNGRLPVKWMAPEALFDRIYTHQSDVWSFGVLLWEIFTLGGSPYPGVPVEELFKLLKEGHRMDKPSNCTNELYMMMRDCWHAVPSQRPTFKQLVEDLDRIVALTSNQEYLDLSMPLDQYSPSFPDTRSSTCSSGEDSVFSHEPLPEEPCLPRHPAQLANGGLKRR
Chain of Recombinant human FGFR2 (P21802 22-821): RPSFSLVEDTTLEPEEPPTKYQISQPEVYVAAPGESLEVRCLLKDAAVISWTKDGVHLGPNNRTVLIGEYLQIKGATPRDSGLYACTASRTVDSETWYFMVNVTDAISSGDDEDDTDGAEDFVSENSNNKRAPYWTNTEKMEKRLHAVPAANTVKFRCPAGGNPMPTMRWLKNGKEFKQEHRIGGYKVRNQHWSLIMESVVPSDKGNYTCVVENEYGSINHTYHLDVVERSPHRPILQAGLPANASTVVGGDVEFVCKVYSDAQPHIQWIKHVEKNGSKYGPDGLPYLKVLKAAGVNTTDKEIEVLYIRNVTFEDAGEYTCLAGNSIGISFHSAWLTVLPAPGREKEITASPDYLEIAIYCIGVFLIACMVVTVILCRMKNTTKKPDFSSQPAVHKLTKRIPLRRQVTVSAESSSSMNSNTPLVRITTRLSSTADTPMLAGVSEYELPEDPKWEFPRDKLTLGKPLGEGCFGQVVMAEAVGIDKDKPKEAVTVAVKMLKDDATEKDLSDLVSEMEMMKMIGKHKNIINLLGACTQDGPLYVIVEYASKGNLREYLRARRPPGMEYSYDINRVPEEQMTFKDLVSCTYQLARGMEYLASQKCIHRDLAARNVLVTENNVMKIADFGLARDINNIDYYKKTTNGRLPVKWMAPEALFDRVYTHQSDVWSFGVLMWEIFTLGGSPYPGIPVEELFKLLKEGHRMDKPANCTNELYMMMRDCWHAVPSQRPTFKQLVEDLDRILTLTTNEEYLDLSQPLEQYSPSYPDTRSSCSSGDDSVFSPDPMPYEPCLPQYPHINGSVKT
Chain of FGFR3 kinase (P22607 23-806): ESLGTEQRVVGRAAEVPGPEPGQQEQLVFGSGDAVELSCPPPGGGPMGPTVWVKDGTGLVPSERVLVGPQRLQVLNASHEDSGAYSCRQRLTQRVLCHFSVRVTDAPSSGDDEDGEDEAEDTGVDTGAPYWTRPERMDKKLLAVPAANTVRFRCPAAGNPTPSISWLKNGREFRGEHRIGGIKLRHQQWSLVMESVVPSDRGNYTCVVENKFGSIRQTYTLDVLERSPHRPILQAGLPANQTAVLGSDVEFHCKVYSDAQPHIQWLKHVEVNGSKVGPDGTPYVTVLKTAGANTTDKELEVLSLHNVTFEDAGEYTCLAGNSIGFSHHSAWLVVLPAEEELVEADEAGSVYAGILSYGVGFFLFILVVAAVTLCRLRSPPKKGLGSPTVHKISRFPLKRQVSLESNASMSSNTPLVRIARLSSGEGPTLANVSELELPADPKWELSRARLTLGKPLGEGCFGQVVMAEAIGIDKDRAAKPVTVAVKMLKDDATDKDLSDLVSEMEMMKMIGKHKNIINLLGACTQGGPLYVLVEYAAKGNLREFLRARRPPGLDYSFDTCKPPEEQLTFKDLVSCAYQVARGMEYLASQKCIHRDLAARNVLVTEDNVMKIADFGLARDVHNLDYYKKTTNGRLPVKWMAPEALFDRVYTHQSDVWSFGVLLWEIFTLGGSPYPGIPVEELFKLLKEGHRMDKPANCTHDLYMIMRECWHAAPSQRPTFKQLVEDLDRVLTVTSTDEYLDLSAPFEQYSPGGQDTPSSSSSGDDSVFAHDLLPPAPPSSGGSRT

As for `CNC(=O)c1cc(COc2cnc(Nc3ccc(-c4cnn(C)c4)cc3)nc2)c(F)c(OC)c1` [Compound 228], the IC50 (usually the point on the concentration scale where inhibition reaches its midpoint) with SNU-16 worked out at 97 nM; with RT-112, 270 nM; on FGFR3 kinase it was 120 nM; at Recombinant human FGFR2 it was 18 nM; at Recombinant human FGFR1 it was 29 nM; in the assay with KG-1 it was 94 nM.
`CNC(=O)c1cc(COc2cnc(Nc3ccc4c(c3)NC(=O)C4(C)C)nc2)c(F)c(OC)c1` [Compound 230]: the IC50 in the assay on SNU-16 is 14 nM; in the assay on RT-112 it was 26 nM; on FGFR3 kinase, 45 nM; on Recombinant human FGFR2, 32 nM; on Recombinant human FGFR1, 101 nM; in the assay with KG-1, 76 nM.
As to `CNC(=O)c1cc(COc2cnc(Nc3ccc(C4CCNCC4)cc3)nc2)c(F)c(OC)c1` [Compound 231], the IC50 in the assay with SNU-16 came to 8 nM; in the assay on RT-112 it was 9 nM; at FGFR3 kinase, 11 nM; at Recombinant human FGFR2 it was 16 nM; at Recombinant human FGFR1 it was 16 nM; in the assay on KG-1 it was 58 nM.
Regarding `CNC(=O)c1cc(COc2cnc(Nc3cccc(-n4nccn4)c3)nc2)c(Cl)c(OC)c1` [Compound 232], the half-maximal inhibitory concentration (IC50) in the assay on SNU-16 stood at 60 nM; with RT-112, 107 nM; at FGFR3 kinase it was 228 nM; at Recombinant human FGFR2 it was 9 nM; on Recombinant human FGFR1, 17 nM; with KG-1, 70 nM.
For the molecule `CNC(=O)c1cc(COc2cnc(Nc3ccc(-n4nccn4)cc3)nc2)c(Cl)c(OC)c1` [Compound 233], the IC50 was 63 nM in the assay on SNU-16; 121 nM in the assay with RT-112; 310 nM on FGFR3 kinase; 31 nM on Recombinant human FGFR2; 98 nM on Recombinant human FGFR1; 58 nM in the assay with KG-1.
Consider `CNC(=O)c1cc(COc2cnc(Nc3cccc(-n4ccnn4)c3)nc2)c(Cl)c(OC)c1` [Compound 234], for which the 50% inhibitory concentration (IC50) in the assay on SNU-16 is 15 nM; with RT-112, 35 nM; on FGFR3 kinase, 30 nM; at Recombinant human FGFR2 it was 4 nM; at Recombinant human FGFR1 it was 6 nM; with KG-1, 14 nM.
`CNC(=O)c1cc(COc2cnc(Nc3ccc(=O)n(C4CCCC4)c3)nc2)c(F)c(OC)c1` [Compound 237]: the IC50 in the assay with SNU-16 was found to be 42 nM; with RT-112, 134 nM; against FGFR3 kinase, 29 nM; on Recombinant human FGFR2, 27 nM; on Recombinant human FGFR1, 66 nM; in the assay with KG-1, 79 nM.
For `CCCN1CC(c2ccc(Nc3ncc(OCc4cc(C(=O)NC)cc(OC)c4F)cn3)cc2)C1` [Compound 240], the IC50 in the assay on SNU-16 came out at 39 nM; with RT-112, 56 nM; on FGFR3 kinase it was 23 nM; at Recombinant human FGFR2, 23 nM; on Recombinant human FGFR1 it was 34 nM; in the assay on KG-1, 23 nM.
On to `CCCN1CC(c2ccc(Nc3ncc(OCc4cc(C(=O)NC)cc(OC)c4F)cn3)cn2)C1` [Compound 241], for which the IC50 amounted to 31 nM with SNU-16; 112 nM in the assay with RT-112; 19 nM against FGFR3 kinase; 21 nM at Recombinant human FGFR2; 31 nM at Recombinant human FGFR1; 162 nM with KG-1.
For `CNC(=O)c1cc(COc2cnc(Nc3ccc(CN4CCOCC4)cc3)nc2)c(F)c(OC)c1` [Compound 242], the IC50 was found to be 14 nM with SNU-16; 32 nM in the assay with RT-112; 13 nM against FGFR3 kinase; 10 nM on Recombinant human FGFR2; 18 nM on Recombinant human FGFR1; 10 nM in the assay with KG-1.
Regarding `CCN(CC)CCc1cccc(Nc2ncc(OCc3cc(C(=O)NC)cc(OC)c3F)cn2)c1` [Compound 243], the half-inhibitory concentration (IC50) came to 6 nM in the assay with SNU-16; 15 nM in the assay on RT-112; 9 nM against FGFR3 kinase; 9 nM on Recombinant human FGFR2; 20 nM at Recombinant human FGFR1; 69 nM in the assay on KG-1.
With `CNC(=O)c1cc(COc2cnc(Nc3ccc([C@@H]4CCCNC4)nc3)nc2)c(Cl)c(OC)c1` [Compound 244], the IC50 in the assay on SNU-16 was found to be 115 nM; in the assay with RT-112, 585 nM; against FGFR3 kinase, 13 nM; at Recombinant human FGFR2 it was 10 nM; on Recombinant human FGFR1, 10 nM; in the assay with KG-1, 362 nM.
For `CNC(=O)c1cc(COc2cnc(Nc3ccc([C@H]4CCCNC4)nc3)nc2)c(Cl)c(OC)c1` [Compound 245], the IC50 with SNU-16 worked out at 136 nM; in the assay with RT-112 it was 581 nM; at FGFR3 kinase, 18 nM; at Recombinant human FGFR2 it was 17 nM; at Recombinant human FGFR1, 16 nM; with KG-1, 533 nM.
In the case of `CNC(=O)c1cc(COc2cnc(Nc3ccc(N4CCOCC4)nc3)nc2)c(Cl)c(OC)c1` [Compound 247], the IC50 in the assay with SNU-16 amounted to 28 nM; in the assay with RT-112, 57 nM; against FGFR3 kinase, 23 nM; on Recombinant human FGFR2, 16 nM; on Recombinant human FGFR1 it was 34 nM; in the assay with KG-1, 42 nM.
For the molecule `CNC(=O)c1cc(COc2cnc(Nc3cnn(C[C@@H]4COC(C)(C)O4)c3)nc2)c(F)c(OC)c1` [Compound 248], the IC50 in the assay with SNU-16 came to 9 nM; with RT-112, 21 nM; against FGFR3 kinase, 14 nM; on Recombinant human FGFR2, 11 nM; at Recombinant human FGFR1, 16 nM; with KG-1, 6 nM.
As to `CNC(=O)c1cc(COc2cnc(Nc3cnn(C[C@H]4COC(C)(C)O4)c3)nc2)c(F)c(OC)c1` [Compound 249], the IC50 in the assay with SNU-16 came to 10 nM; with RT-112 it was 30 nM; against FGFR3 kinase, 15 nM; on Recombinant human FGFR2, 14 nM; on Recombinant human FGFR1, 38 nM; in the assay on KG-1 it was 27 nM.
On to `CCN(CC)CCn1cc(Nc2ncc(OCc3c(F)c(OC)cc(C(=O)NC)c3F)cn2)cn1` [Compound 251], for which the IC50 in the assay on SNU-16 worked out at 41 nM; with RT-112, 87 nM; against FGFR3 kinase, 24 nM; on Recombinant human FGFR2 it was 23 nM; on Recombinant human FGFR1 it was 25 nM; with KG-1, 31 nM.
`CCN1CCC(c2ccc(Nc3ncc(OCc4cc(C(=O)NC)cc(OC)c4F)cn3)cc2)CC1` [Compound 252]: the IC50 came to 8 nM with SNU-16; 6 nM in the assay with RT-112; 16 nM against FGFR3 kinase; 22 nM on Recombinant human FGFR2; 21 nM at Recombinant human FGFR1; 28 nM with KG-1.
As to `CCN1CCC(c2ccc(Nc3ncc(OCc4cc(C(=O)NC)cc(OC)c4F)cn3)cn2)CC1` [Compound 256], the IC50 amounted to 22 nM with SNU-16; 57 nM in the assay with RT-112; 39 nM on FGFR3 kinase; 40 nM at Recombinant human FGFR2; 100 nM at Recombinant human FGFR1; 202 nM in the assay on KG-1.
For the molecule `CNC(=O)c1cc(COc2cnc(Nc3ccnc(N4C[C@@H](C)N[C@@H](C)C4)c3)nc2)c(F)c(OC)c1` [Compound 259], the IC50 with SNU-16 is 39 nM; with RT-112, 141 nM; at FGFR3 kinase, 13 nM; at Recombinant human FGFR2, 14 nM; on Recombinant human FGFR1, 24 nM; with KG-1, 220 nM.
Take `CNC(=O)c1cc(COc2cnc(Nc3ccc(N4CCOCC4)c(OC)c3)nc2)c(F)c(OC)c1` [Compound 261]: the concentration for half-maximal inhibition (IC50) with SNU-16 is 7 nM; in the assay on RT-112, 13 nM; against FGFR3 kinase, 18 nM; on Recombinant human FGFR2, 13 nM; at Recombinant human FGFR1, 26 nM; in the assay on KG-1 it was 19 nM.
For `CCN(CC)CCOc1ccc(Nc2ncc(OCc3cc(C(=O)NC)cc(OC)c3F)cn2)cc1` [Compound 262], the IC50 with SNU-16 worked out at 29 nM; with RT-112, 133 nM; against FGFR3 kinase, 21 nM; at Recombinant human FGFR2, 20 nM; at Recombinant human FGFR1, 43 nM; in the assay with KG-1, 37 nM.
On to `CNC(=O)c1cc(COc2cnc(Nc3ccc(N4CCN(C)CC4)nc3)nc2)c(Cl)c(OC)c1` [Compound 263], for which the IC50 in the assay with SNU-16 was 14 nM; in the assay with RT-112, 28 nM; on FGFR3 kinase it was 6 nM; on Recombinant human FGFR2 it was 5 nM; on Recombinant human FGFR1 it was 5 nM; with KG-1 it was 7 nM.
On to `CNC(=O)c1cc(COc2cnc(Nc3ccc(N4CCC(N(C)C)CC4)cc3)nc2)c(F)c(OC)c1` [Compound 264], for which the concentration for half-maximal inhibition (IC50) was found to be 8 nM in the assay with SNU-16; 8 nM with RT-112; 6 nM on FGFR3 kinase; 5 nM on Recombinant human FGFR2; 10 nM at Recombinant human FGFR1; 7 nM with KG-1.
For `CNC(=O)c1cc(COc2cnc(Nc3ccc(N4C[C@@H](C)N(C)[C@@H](C)C4)cc3)nc2)c(F)c(OC)c1` [Compound 267], the IC50 in the assay with SNU-16 is 17 nM; in the assay on RT-112, 33 nM; on FGFR3 kinase, 8 nM; on Recombinant human FGFR2, 6 nM; at Recombinant human FGFR1, 6 nM; with KG-1, 28 nM.
As for `CNC(=O)c1cc(COc2cnc(Nc3ccc(N4C[C@@H](C)N(C)[C@@H](C)C4)nc3)nc2)c(F)c(OC)c1` [Compound 268], the half-maximal inhibitory concentration (IC50) amounted to 18 nM in the assay with SNU-16; 47 nM in the assay with RT-112; 20 nM on FGFR3 kinase; 16 nM on Recombinant human FGFR2; 21 nM at Recombinant human FGFR1; 17 nM with KG-1.
For `CNC(=O)c1cc(COc2cnc(Nc3ccc(N4CCN(C)CC4)c(OC)c3)nc2)c(F)c(OC)c1` [Compound 269], the IC50 was found to be 6 nM with SNU-16; 5 nM in the assay on RT-112; 5 nM at FGFR3 kinase; 7 nM on Recombinant human FGFR2; 10 nM at Recombinant human FGFR1; 6 nM in the assay with KG-1.
